≈ marks a conversion by molar mass, not a printed value. Like-named read-outs stand apart in the source and are kept apart here.
How the values were obtained:
[1] = test system: S. epidermidis; experiment: In vitro MIC testing, antibacterial spectrum of activity; type: cell-based, Staphylococcus epidermidis; conditions: for MIC50 / MIC90: Staphylococcus epidermidis; for MIC50: read-out: MIC50; for MIC90: read-out: MIC90
[2] = test system: Fusobacterium necrophorum; experiment: In vitro MIC testing against anaerobic bacteria; type: cell-based; conditions: ATCC25286; Fusobacterium necrophorum 3963, ATCC 25286; read-out: MIC
[3] = test system: Clostridium perfringens; experiment: microbe, parasite or virus in culture; type: cell-based
[4] = test system: Lactobacillus casei; experiment: In vitro MIC testing against anaerobic bacteria; type: cell-based; conditions: Lacticaseibacillus casei, ATCC393; Lactobacillus casei 1722, ATCC 393
[5] = test system: E. faecalis; experiment: In vitro MIC testing, antibacterial spectrum of activity; type: cell-based
[6] = test system: P. avidum; experiment: as above; type: cell-based; conditions: P. avidum [clinical isolates] (4 isolates)
[7] = test system: Bifidobacterium brevi; experiment: In vitro MIC testing against anaerobic bacteria; type: cell-based; conditions: ATCC15698; Bifidobacterium brevi 3967, ATCC 15698
[8] = test system: Streptococcus spp. [Group C]; experiment: In vitro MIC testing, antibacterial spectrum of activity; type: cell-based; conditions: Streptococcus spp. [Group C] (30 isolates); read-out: MIC50
[9] = test system: Bifidobacterium longum; experiment: In vitro MIC testing against anaerobic bacteria; type: cell-based; conditions: ATCC15707; Bifidobacterium longum 3968, ATCC 15707
[10] = test system: Lactobacillus acidophilus; experiment: In vitro MIC testing against anaerobic bacteria; type: cell-based; conditions: Lactobacillus acidophilus 0681
[11] = test system: S. agalactiae; experiment: In vitro MIC testing, antibacterial spectrum of activity; type: cell-based
[12] = test system: Streptococcus intermedius; experiment: In vitro MIC testing against anaerobic bacteria; type: cell-based; conditions: ATCC27335; Streptococcus intermedius 1203, ATCC 27335
[13] = test system: P. mirabilis; experiment: In vitro MIC testing, antibacterial spectrum of activity; type: cell-based; conditions: Proteus mirabilis; P. mirabilis (30 isolates)
[14] = test system: E. coli; experiment: as above; type: cell-based; conditions: E. coli [tetS] (7 isolates)
[15] = test system: Prevotella melaninogenica; experiment: In vitro MIC testing against anaerobic bacteria; type: cell-based; conditions: Prevotella melaninogenica 3443, read-out: MIC
[16] = test system: Porphyromonas asaccharolytica; experiment: In vitro MIC testing against anaerobic bacteria; type: cell-based
[17] = test system: S. pyogenes; experiment: In vitro MIC testing, antibacterial spectrum of activity; type: cell-based
[18] = test system: S. pneumoniae; experiment: as above; type: cell-based, Streptococcus pneumoniae
[19] = test system: Bacteroides thetaiotaomicron; experiment: In vitro MIC testing against anaerobic bacteria; type: cell-based
[20] = test system: Bifidobacterium bifidum; experiment: In vitro MIC testing against anaerobic bacteria; type: cell-based; conditions: ATCC15696; Bifidobacterium bifidum 3965, ATCC 15696
[21] = test system: P. granulosum; experiment: In vitro MIC testing, antibacterial spectrum of activity; type: cell-based; conditions: P. granulosum [clinical isolates] (3 isolates)
[22] = test system: Bacteroides fragilis; experiment: In vitro MIC testing against anaerobic bacteria; type: cell-based
[23] = test system: Fusobacterium nucleatum; experiment: In vitro MIC testing against anaerobic bacteria; type: cell-based; conditions: ATCC25586; Fusobacterium nucleatum 3962, ATCC 25586; read-out: MIC
[24] = test system: Veillonella parvula; experiment: In vitro MIC testing against anaerobic bacteria; type: cell-based; conditions: ATCC17745; Veillonella parvula 1272, ATCC 17745
[25] = test system: Clostridium difficile; experiment: In vitro MIC testing against anaerobic bacteria; type: cell-based
[26] = test system: Peptostreptococcus micros; experiment: In vitro MIC testing against anaerobic bacteria; type: cell-based; conditions: Parvimonas micra, read-out: MIC
[27] = test system: Propionibacterium acnes; experiment: In vitro MIC testing against anaerobic bacteria; type: cell-based; conditions: Cutibacterium acnes, read-out: MIC
[28] = test system: S. haemolyticus; experiment: In vitro MIC testing, antibacterial spectrum of activity; type: cell-based; conditions: S. haemolyticus (33 isolates)
[29] = test system: Peptostreptococcus anaerobius; experiment: In vitro MIC testing against anaerobic bacteria; type: cell-based
[30] = test system: E. faecium; experiment: In vitro MIC testing, antibacterial spectrum of activity; type: cell-based; conditions: for MIC / MIC50 / MIC90: Enterococcus faecium; for MIC50: read-out: MIC50; for MIC90: read-out: MIC90
[31] = test system: K. pneumoniae; experiment: as above; type: cell-based; conditions: Klebsiella pneumoniae
[32] = test system: P. aeruginosa; experiment: as above; type: cell-based; conditions: Pseudomonas aeruginosa; P. aeruginosa (11 isolates)
[33] = S. epidermidis [MRSE] (32 isolates)
[34] = S. epidermidis [MSSE] (31 isolates)

Compound: CN(C)c1ccc(O)c2c1C[C@H]1C[C@H]3[C@H](N(C)C)C(O)=C(C(N)=O)C(=O)[C@@]3(O)C(O)=C1C2=O [Minocycline, minocycline]
- MIC Range [1, 33]: 0.06 to 0.5 µg/mL
- MIC Range [1, 34]: 0.06 to 0.25 µg/mL
- MIC50 [1, 33]: 0.12 µg/mL (≈ 0.262 µM)
- MIC90 [1, 33]: 0.25 µg/mL (≈ 0.546 µM)
- MIC50 [1, 34]: 0.06 µg/mL (≈ 0.131 µM)
- MIC90 [1, 34]: 0.25 µg/mL (≈ 0.546 µM)
- MIC [2]: 0.06 µg/mL (≈ 0.131 µM)
- MIC [3]: 8 µg/mL (≈ 17.5 µM)
- MIC [4]: 0.5 µg/mL (≈ 1.09 µM)
- MIC Range ([5]; E. faecalis [tetS] (4 isolates)): 0.25 to 0.5 µg/mL
- MIC50 ([5]; Enterococcus faecalis, E. faecalis [VSE] (31 isolates), read-out: MIC50): 8 µg/mL (≈ 17.5 µM)
- MIC90 ([5]; Enterococcus faecalis, E. faecalis [VSE] (31 isolates), read-out: MIC90): 16 µg/mL (≈ 35 µM)
- MIC Range [6]: 0.25 to 2 µg/mL
- MIC [7]: 0.25 µg/mL (≈ 0.546 µM)
- MIC50 [8]: 0.06 µg/mL (≈ 0.131 µM)
- MIC [9]: 1 µg/mL (≈ 2.19 µM)
- MIC [10]: 0.5 µg/mL (≈ 1.09 µM)
- MIC Range ([11]; S. agalactiae [tetS] (3 isolates)): 0.5-0.5 μg/mL
- MIC50 ([11]; Streptococcus agalactiae, S. agalactiae (31 isolates), read-out: MIC50): 16 µg/mL (≈ 35 µM)
- MIC90 ([11]; Streptococcus agalactiae, S. agalactiae (31 isolates), read-out: MIC90): 16 µg/mL (≈ 35 µM)
- MIC [12]: 0.25 µg/mL (≈ 0.546 µM)
- MIC50 [13]: 16 µg/mL (≈ 35 µM)
- MIC90 [13]: > 32 µg/mL
- MIC Range [14]: 0.5 to 4 µg/mL
- MIC [15]: 1 µg/mL (≈ 2.19 µM)
- MIC ([16]; Porphyromonas asaccharolytica 3552, read-out: MIC): 8 µg/mL (≈ 17.5 µM)
- MIC ([16]; Porphyromonas asaccharolytica 3557, read-out: MIC): 4 µg/mL (≈ 8.74 µM)
- MIC Range ([17]; S. pyogenes [tetS] (5 isolates)): 0.25 to 0.5 µg/mL
- MIC ([17]; Streptococcus pyogenes, S. pyogenes strain PBS # 330, tetO): 8 µg/mL (≈ 17.5 µM)
- MIC50 ([17]; Streptococcus pyogenes, S. pyogenes (32 isolates), read-out: MIC50): 0.06 µg/mL (≈ 0.131 µM)
- MIC Range ([18]; S. pneumoniae [tetS] (5 isolates)): 0.25-0.25 μg/mL
- MIC50 ([18]; Streptococcus pneumoniae, S. pneumoniae [PSSP] (32 isolates), read-out: MIC50): 0.06 µg/mL (≈ 0.131 µM)
- MIC90 ([18]; Streptococcus pneumoniae, S. pneumoniae [PSSP] (32 isolates), read-out: MIC90): 0.12 µg/mL (≈ 0.262 µM)
- MIC ([19]; Bacteroides thetaiotaomicron 3399): 0.03 µg/mL (≈ 0.0656 µM)
- MIC ([19]; Bacteroides thetaiotaomicron 3496): 8 µg/mL (≈ 17.5 µM)
- MIC [20]: 0.25 µg/mL (≈ 0.546 µM)
- MIC Range [21]: 0.25 to 0.5 µg/mL
- MIC ([22]; Bacteroides fragilis 3374, read-out: MIC): 0.03 µg/mL (≈ 0.0656 µM)
- MIC ([22]; Bacteroides fragilis 3479, read-out: MIC): 8 µg/mL (≈ 17.5 µM)
- MIC [23]: 0.06 µg/mL (≈ 0.131 µM)
- MIC [24]: 0.5 µg/mL (≈ 1.09 µM)
- MIC ([25]; Clostridioides difficile): 0.03 µg/mL (≈ 0.0656 µM)
- MIC ([25]; Clostridium difficile 3584): 0.03 µg/mL (≈ 0.0656 µM)
- MIC ([26]; Peptostreptococcus micros 3432): 0.06 µg/mL (≈ 0.131 µM)
- MIC ([26]; Peptostreptococcus micros 3545): 0.25 µg/mL (≈ 0.546 µM)
- MIC ([27]; ATCC11829, Propionibacterium acnes 1286, ATCC 11829): 0.5 µg/mL (≈ 1.09 µM)
- MIC ([27]; Propionibacterium acnes 1713): 0.06 µg/mL (≈ 0.131 µM)
- MIC Range [28]: ≦0.03-0.5 μg/mL
- MIC50 ([28]; Staphylococcus haemolyticus, read-out: MIC50): 0.06 µg/mL (≈ 0.131 µM)
- MIC90 ([28]; Staphylococcus haemolyticus, read-out: MIC90): 0.5 µg/mL (≈ 1.09 µM)
- MIC ([29]; Peptostreptococcus anaerobius 3526): 1 µg/mL (≈ 2.19 µM)
- MIC ([29]; Peptostreptococcus anaerobius 3531): 2 µg/mL (≈ 4.37 µM)
- MIC Range ([30]; E. faecium [tetR] (6 isolates)): 2 to 32 µg/mL
- MIC Range ([30]; E. faecium [tetS] (4 isolates)): 0.25 to 0.5 µg/mL
- MIC ([30]; E. faecium strain PBS # 965, tetM): 8 µg/mL (≈ 17.5 µM)
- MIC ([30]; E. faecium strain PBS # 1323, tetK): 2 µg/mL (≈ 4.37 µM)
- MIC ([30]; E. faecium strain PBS # 1324, tetO): 2 µg/mL (≈ 4.37 µM)
- MIC50 ([30]; E. faecium [VRE] (30 isolates)): 0.25 µg/mL (≈ 0.546 µM)
- MIC90 ([30]; E. faecium [VRE] (30 isolates)): 16 µg/mL (≈ 35 µM)
- MIC50 ([30]; E. faecium [VSE] (32 isolates)): 0.12 µg/mL (≈ 0.262 µM)
- MIC90 ([30]; E. faecium [VSE] (32 isolates)): 16 µg/mL (≈ 35 µM)
- MIC50 ([31]; K. pneumoniae (31 isolates)): 4 µg/mL (≈ 8.74 µM)
- MIC90 ([31]; K. pneumoniae (31 isolates)): > 32 µg/mL
- MIC ([31]; K. pneumoniae strain PBS # 266, tetD): 64 µg/mL (≈ 140 µM)
- MIC50 [32]: > 32 µg/mL
- MIC90 [32]: > 32 µg/mL
